Assay results published in paper PMC11820055, “Human Pharmacokinetic Profiling and Comparative Analysis of Mangiferin and Its Monosodium Derivative from Mangifera indica Extracts Using UHPLC-MS/MS with ^1H NMR and MALDI-TOF Confirmation” (Molecules, 2025).
In brackets after ≈: the same amount, converted by molar mass. Counter-ions that a name gives are not always drawn. Like-named read-outs stand apart in the source and are kept apart here.

Columns and labels:
[1] = Stability of mangiferin in human plasma QC samples; format: in vitro ADME; details: for Stability (%, Mean ± RSD) Autosampler / Stability (%, Mean ± RSD) Room Temp. / Stability (%, Mean ± RSD) Freeze–Thaw: human plasma QC, n = 6; for Stability (%, Mean ± RSD) Autosampler: autosampler 4 h at 12 °C; for Stability (%, Mean ± RSD) Room Temp.: room temperature for 4 h; for Stability (%, Mean ± RSD) Freeze–Thaw: three cycles of freezing (−80 °C) and thawing (20 °C)
Protocol: Quality control (QC) samples were prepared in the same manner and evaluated at low, medium, and high concentrations: 50, 500, and 1000 ng/mL. Blank plasma samples were also included in the injection series to account for any potential carryover. The stability of mangiferin in human plasma was evaluated by analyzing the same three levels of QC samples (n = 6) after storage at room temperature for 4 h, in the autosampler for 4 h at 12 °C, and after three cycles of freezing (−80 °C) and thawing (20 °C).

[2] = set-up: method as in earlier work; details: pure mangiferin; cited from earlier work
[3] = set-up: method as in PMID 26434292; details: human plasma, mangiferin >90% purity, cited from earlier work
[4] = cited from earlier work
[5] = set-up: method as in doi:10.1155/2019/9272710; details: male Sprague Dawley rats; cited from earlier work
[6] = test system: rats; details: dose of 400 mg of the purified salt; cited from earlier work
[7] = test system: mice; details: cited from earlier work

With O=c1c2cc(O)c(O)cc2oc2cc(O)c([C@@H]3O[C@H](CO)[C@@H](O)[C@H](O)[C@H]3O)c(O)c12 [Mangiferin] the “stability throughout the analytical process” value ([1]; human plasma QC samples) was “stable”, the “Stability (%, Mean ± RSD) Autosampler” value ([1]; 1.000 ng/mL as printed) was 101.63 ± 8.50% and the “Stability (%, Mean ± RSD) Room Temp.” value ([1]; 1.000 ng/mL as printed) was 101.75 ± 8.11%. For the same compound, the “Stability (%, Mean ± RSD) Freeze–Thaw” value ([1]; 1.000 ng/mL as printed) was 102.64 ± 1.05%, the “Stability (%, Mean ± RSD) Autosampler” value ([1]; 50 ng/mL) was 109.92 ± 2.77% and the “Stability (%, Mean ± RSD) Room Temp.” value ([1]; 50 ng/mL) was 103.10 ± 3.66%. For the same compound, the “Stability (%, Mean ± RSD) Freeze–Thaw” value ([1]; 50 ng/mL) was 108.60 ± 3.87%, the “Stability (%, Mean ± RSD) Autosampler” value ([1]; 500 ng/mL) was 102.02 ± 8.81% and the “Stability (%, Mean ± RSD) Room Temp.” value ([1]; 500 ng/mL) was 101.27 ± 9.08%. For the same compound, the “Stability (%, Mean ± RSD) Freeze–Thaw” value ([1]; 500 ng/mL) was 101.68 ± 0.91%, the aqueous solubility [2] was 111 µg/mL (≈ 263 µM) and the Cmax ([3]; 100 mg oral dose) was 19.94 ng/mL. For the same compound, the Cmax ([3]; 900 mg oral dose) was 38.64 ng/mL and the “increase of exposure on inhibition of the transporter P-gp” value ([4]; pure mangiferin) was “approximately threefold”.
For O=c1c2cc(O)c(O)cc2oc2cc(O)c([C@@H]3O[C@H](CO)[C@@H](O)[C@H](O)[C@H]3O)c(O)c12 [mangiferin monosodium salt, Monosodium mangiferin], the “relative bioavailability of the salt vs pure mangiferin based on AUC0–∞” value [5] is listed as 5.7 times, the safety in rats [6] is listed as “generally safe” and the “maximum tolerated dose (MTD)” value [7] is listed as 12,000 mg/kg.
In the case of O=c1c2cc(O)c(O)cc2oc2cc(O)cc(O)c12 [norathyriol], the Tmax ([4]; in vivo) is listed as ~15 h and the “absorption of norathyriol as fraction of the mangiferin dose” value ([4]; in vivo) is listed as “approximately 0.1%”.
